Laboratory results reported in paper PMC6155332, “Antimalarials with Benzothiophene Moieties as Aminoquinoline Partners” (Molecules : A Journal of Synthetic Chemistry and Natural …, 2017).
Where “and” joins values, the source holds several entries; their conditions need not be identical. Identical values can stand only once.

Legend:
[1] = test system: healthy mice; assay: Host toxicity study in healthy mice; type: in vivo; conditions: groups of 5 healthy mice, 160 mg/kg/day × 3 days
Protocol: In a separate host toxicity study, groups of five healthy mice were administered 160 mg/kg/day × 3 days of the investigational compounds and individually monitored for behavior and appearance two times a day for 31 days. No toxicity was defined as survival past day 31 with no overt clinical manifestations of toxicity (changes in behavior and appearance).

[2] = test system: P. berghei DNA; assay: qPCR of blood and liver of treated mice for Plasmodium 18S rRNA gene; type: in vivo, Plasmodium berghei; conditions: mice treated 160 mg/kg/day × 3 days, alive past day 31
Description: Briefly, genomic DNA was extracted from the blood and liver of experimental animals using the DNeasy blood and tissue kit (Qiagen, Hilden, Germany) according to the manufacturer’s instructions. The primers and corresponding TaqMan (Applied BioSystems. Foster City, CA, USA) probe amplify and detect a highly conserved region of the 18S rRNA gene of the genus Plasmodium. Pure P. berghei gDNA samples were used as positive controls.
Genomic DNA was extracted from the blood and liver of experimental animals using the DNeasy blood and tissue kit (Qiagen, Hilden, Germany) according to the manufacturer’s instructions. Briefly, mice alive past day 31 with complete parasite clearance were sacrificed. Next, between 300 and 500 μL of blood was removed after heart puncture and the organs were removed, rinsed with dPBS and homogenized. The liver was homogenized using mechanical disruption and then subjected to proteinase K digestion. Approximately 100 μL of sample was used per each spin column for gDNA extraction.
Briefly, the primers and corresponding TaqMan probe amplify and detect a highly conserved region of the 18S rRNA gene of the genus Plasmodium. The primer and probe sequences were as follows: forward primer Plasmo 1: 5-[…] TCAGA-3; reverse primer Plasmo 2: 5-[…] TCATAA-3; TaqMan probe Plasprobe: 5-FAM-[…] GACTAG-TAMRA-3. […]

[3] = test system: β-hematin formation; assay: Inhibition of β-hematin formation (BHIA assay); type: biochemical; conditions: molar equivalent of compound, relative to hemin, that inhibits β-hematin formation by 50%
Description: [33] The inhibition of β-hematin formation is expressed as the molar equivalent of compound, relative to hemin, that inhibits β-hematin formation by 50% and determined by slightly modified BHIA assay introduced by ParapiniS.BasilicoN.PasiniE.EganT.J.OlliaroP.TaramelliD.MontiD.Standardization of the physicochemical parameters to assess in vitro the beta-hematin inhibitory activity of antimalarial drugsExp. Parasitol.200096249256

[4] = test system: P. berghei (ANKA); assay: Modified Thompson test, P. berghei mouse efficacy; type: in vivo, Plasmodium berghei; conditions: for Parasitemia D18: day 18; for Parasitemia D21: day 21; for Parasitemia D25: day 25; for Parasitemia D28: day 28; for Parasitemia D11: day 11; for Mean Survival Time (MST, Days) / Mice Alive on Day 31 / Mice Dead/Day Died: infected mice
Protocol: In a separate host toxicity study, benzothiophene 25 was subjected to in vivo toxicity evaluation. […]
The P. berghei (ANKA) mouse efficacy tests were conducted using a modified version of the Thompson test. Groups of five mice were inoculated intraperitoneally with erythrocytes infected with P. berghei on day 0. Drugs were suspended in 0.5% hydroxyethylcellulose-0.1% Tween 80 and administered orally once a day beginning on day 3 post infection. […] Cure was defined as survival (with no parasitemia) until day 31 post-treatment. Parasitemia was determined by thin-blood Giemsa-stained smears prepared from mice tail blood of each animal on days 0, 3, 6, 10, 13, 17, 20, 24, 27, and 31 (postinfection). The slides were examined under a light microscope.

[5] = test system: HepG2 (hepatocellular carcinoma) cell line; parameters: method as in PMID 26640981; conditions: previously reported compounds; ref [27]; cited from earlier work
[6] = test system: P. falciparum D6 (CQ susceptible (CQS) strain); parameters: method as in PMID 26640981, PMID 25801154; conditions: previously reported compounds; ref [27],[28]; cited from earlier work
[7] = test system: P. falciparum W2 (CQ resistant (CQR) strain); parameters: method as in PMID 26640981; conditions: previously reported compounds; ref [27]; cited from earlier work
[8] = 20 mg/kg/day p.o., days 3–6 postinfection
[9] = 40 mg/kg/day p.o., days 3–6 postinfection
[10] = 80 mg/kg/day p.o., days 3–6 postinfection
[11] = 160 mg/kg/day p.o., days 3–5 postinfection

SMILES: Clc1ccc2c(NCCCCNCc3csc4ccccc34)ccnc2c1 [Compound 1]
- Mice survived in host toxicity study [1]: 5/5
- P. berghei DNA in blood and tissue samples (qPCR) [2]: negative
- IC50 of inhibition of β-hematin formation [3]: 0.34 molar equivalent
- Parasitemia D18 ([4]; 20 mg/kg/day p.o. days 3–6): 6%
- Parasitemia D21 ([4]; 20 mg/kg/day p.o. days 3–6): 27%
- Parasitemia D25 ([4]; 20 mg/kg/day p.o. days 3–6): 63%
- Parasitemia D28 ([4]; 20 mg/kg/day p.o. days 3–6): 66%
- Cure (4 days therapy) ([4]; 20 mg/kg/day): no cure
- Parasitemia D7 ([4]; 40 mg/kg/day p.o. days 3–6, day 7, positive mice): 5 mice negative
- Parasitemia D11 ([4]; 40 mg/kg/day p.o. days 3–6): no detectable parasitemia and 5 mice negative
- Parasitemia D18 ([4]; 40 mg/kg/day p.o. days 3–6): 2.2%
- Parasitemia D21 ([4]; 40 mg/kg/day p.o. days 3–6): 7.3%
- Parasitemia D25 ([4]; 40 mg/kg/day p.o. days 3–6): 37%
- Parasitemia D28 ([4]; 40 mg/kg/day p.o. days 3–6): 53%
- Parasitemia D7 ([4]; 80 mg/kg/day p.o. days 3–6, day 7, positive mice): 4 mice negative
- Parasitemia D11 ([4]; 80 mg/kg/day p.o. days 3–6): 4 mice negative
- Parasitemia D18 ([4]; 80 mg/kg/day p.o. days 3–6): 2.3%
- Parasitemia D7 ([4]; 160 mg/kg/day p.o. days 3–5, day 7): cleared all parasites
- Parasitemia D31 ([4]; 160 mg/kg/day p.o. days 3–5, day 31 (end of study)): parasite negative
- Parasitemia D7–D31 ([4]; 160 mg/kg/day p.o. days 3–5, days 7–31): 5 mice negative
- Parasite clearance in dose response test ([4]; 80, 40 and 20 mg/kg/day p.o. for 4 days, starting day 3 postinfection): did not clear the parasites
- Cure (4 days therapy) ([4]; 80 and 40 mg/kg/day, clearance with recrudescence on D11-14): no cure
- Mice cured (modified Thompson test, 3 days therapy) ([4]; P. berghei infected mice, 160 mg/kg/day × 3 days p.o.): 5/5
- Mean Survival Time (MST, Days) [4, 8]: 16.8 days
- Mice Alive on Day 31 [4, 8]: 0/5
- Mice Dead/Day Died ([4]; 20 mg/kg/day p.o., days 3–6 postinfection, 20 mg/kg/day): 2/11 and 1/14 and 1/18 and 1/30
- Mean Survival Time (MST, Days) [4, 9]: 19.4 days
- Mice Alive on Day 31 [4, 9]: 0/5
- Mice Dead/Day Died ([4]; 40 mg/kg/day p.o., days 3–6 postinfection, 40 mg/kg/day): 1/30 and 1/15 and 1/16 and 2/18
- Mean Survival Time (MST, Days) [4, 10]: 18.2 days
- Mice Alive on Day 31 [4, 10]: 0/4
- Mice Dead/Day Died ([4]; 80 mg/kg/day p.o., days 3–6 postinfection, 80 mg/kg/day): 3/18 and 1/19
- Mean Survival Time (MST, Days) [4, 11]: >31 days
- Mice Alive on Day 31 [4, 11]: 5/5
- SI(HepG2/D6) [5]: 282
- IC50 [6]: 8 nM
- IC50 [7]: 31 nM
